Our source for the TGI values is PubChem BioAssay (NCI).

The TGI is the concentration giving total growth inhibition.

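Each compound was tested at five concentrations against cells in 96-well plates for 48 hours. The concentration for full growth arrest is given as TGI.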

Test systems include MDA-MB-435; SNB-19 CNS; LOX IMVI melanoma; OVCAR-8 ovarian; MCF7 breast; KM12 colon; MALME-3M melanoma; TK-10 renal; RPMI-8226 leukemia; ACHN renal.
Holding throughout (assay): DTP human tumour cell line panel, 48 h

For `Cc1cccc2c1CC(Cc1ccccc1C(=O)O)C2=O` (stereo not drawn), the TGI in the test on MDA-MB-435, with SNB-19 CNS, in the test on LOX IMVI melanoma, in the test with OVCAR-8 ovarian, in the test on MCF7 breast and with KM12 colon was more than 100 µM each time. Besides, the TGI in the test with MALME-3M melanoma, in the test with TK-10 renal, in the test on RPMI-8226 leukemia and in the test with ACHN renal was more than 100 µM each time.
For `CCOC(=O)[C@@H](Cc1ccc(CCl)cc1)NC(C)=O`, the TGI is 48.7 µM with MDA-MB-435; 79.2 µM with SNB-19 CNS; 37 µM in the test on LOX IMVI melanoma; more than 100 µM in the test with OVCAR-8 ovarian; 83.5 µM with MCF7 breast; 40.5 µM in the test with KM12 colon. Further, the TGI in the test on MALME-3M melanoma was found to be 37.7 µM; in the test on TK-10 renal, 23.4 µM; with RPMI-8226 leukemia, 88.4 µM; in the test on ACHN renal it was 43.5 µM.
For the compound `C[C@H]1[C@H](C)CC[C@]2(C(=O)OC3OC(CO)C(O)C(O)C3O)CC[C@]3(C)C(=CC[C@@H]4[C@@]5(C)C[C@@H](O)[C@@H]6OC(=O)c7cc(O)c(O)c(O)c7-c7c(cc(O)c(O)c7O)C(=O)OC[C@@]6(CO)[C@@H]5CC[C@]43C)[C@H]12` (stereo partly drawn), the TGI in the test on MDA-MB-435 is 37.2 µM; with SNB-19 CNS it was more than 100 µM; in the test on LOX IMVI melanoma, 35.9 µM; in the test on OVCAR-8 ovarian it was more than 100 µM; with MCF7 breast, 36.4 µM; in the test with KM12 colon, more than 100 µM. The TGI with MALME-3M melanoma, with TK-10 renal, in the test on RPMI-8226 leukemia and in the test on ACHN renal was more than 100 µM each time.
Take `NC(=O)C1CCN(Cc2c(Cl)c(Cl)c(CN3CCC(C(N)=O)CC3)c(Cl)c2Cl)CC1`: the TGI with MDA-MB-435, with SNB-19 CNS, with LOX IMVI melanoma, in the test with OVCAR-8 ovarian, in the test with MCF7 breast and in the test on KM12 colon was more than 100 µM throughout. The TGI in the test with MALME-3M melanoma, with TK-10 renal, with RPMI-8226 leukemia and in the test with ACHN renal was more than 100 µM throughout.
Take `O=C(c1ccc([N+](=O)[O-])cc1)N1CCCC1`: the total growth inhibition concentration (TGI) with MDA-MB-435, in the test with SNB-19 CNS, in the test on LOX IMVI melanoma, with OVCAR-8 ovarian, in the test with MCF7 breast and in the test on KM12 colon was more than 100 µM in each case. In addition, the TGI in the test on MALME-3M melanoma, in the test with TK-10 renal, in the test on RPMI-8226 leukemia and with ACHN renal was more than 100 µM in each case.
With `O=c1c2ccc(Cl)cc2oc2c(CNc3ccc(S(=O)(=O)Nc4ncccn4)cc3)cccc12`, the TGI with MDA-MB-435, with SNB-19 CNS, in the test with LOX IMVI melanoma, in the test on OVCAR-8 ovarian, with MCF7 breast and in the test with KM12 colon was more than 100 µM throughout. Besides, the TGI in the test with MALME-3M melanoma, in the test with TK-10 renal, in the test on RPMI-8226 leukemia and in the test with ACHN renal was more than 100 µM throughout.
Regarding `CC(C)=C/C(CC(O)(C(F)(F)F)C(F)(F)F)=N\O`, the TGI in the test with MDA-MB-435, with SNB-19 CNS, in the test with LOX IMVI melanoma, in the test with OVCAR-8 ovarian, in the test with MCF7 breast and in the test on KM12 colon was more than 100 µM each time. The total growth inhibition concentration (TGI) in the test on MALME-3M melanoma, in the test with TK-10 renal, in the test on RPMI-8226 leukemia and with ACHN renal was more than 100 µM throughout.
Regarding `C/C(=C\CSCC(N)C(=O)O)CC/C=C(\C)CNc1ccccc1` (stereo not drawn), the TGI with MDA-MB-435, in the test on SNB-19 CNS, with LOX IMVI melanoma, in the test with OVCAR-8 ovarian, in the test on MCF7 breast and in the test on KM12 colon was more than 100 µM in each case. The TGI in the test on MALME-3M melanoma, with TK-10 renal, with RPMI-8226 leukemia and in the test on ACHN renal was more than 100 µM each time.
Take `O=C1c2cc3c(cc2CC12Cc1ccc4c(c1C2=O)CCC4)CCC3` (stereo not drawn): the TGI in the test on MDA-MB-435, with SNB-19 CNS, in the test on LOX IMVI melanoma, in the test on OVCAR-8 ovarian, in the test with MCF7 breast and in the test on MALME-3M melanoma was more than 100 µM throughout. Further, the TGI in the test on TK-10 renal, with RPMI-8226 leukemia and with ACHN renal was more than 100 µM throughout.
On to `Cc1cc(S(=O)(=O)N=C2Nc3cccc4cccc(c34)N2)c(S)cc1Cl`, for which the TGI in the test on MDA-MB-435, in the test on SNB-19 CNS, with LOX IMVI melanoma, in the test on OVCAR-8 ovarian, in the test on MCF7 breast and in the test on KM12 colon was more than 100 µM each time. The TGI in the test on MALME-3M melanoma, in the test with RPMI-8226 leukemia and with ACHN renal was more than 100 µM each time.
As for `CCc1nc2c(c(N(C)C)c1C(=O)OC)CCc1ccccc1-2`, the TGI in the test with MDA-MB-435 was 65.6 µM; in the test with SNB-19 CNS, more than 100 µM; with LOX IMVI melanoma, more than 100 µM; in the test on OVCAR-8 ovarian it was more than 100 µM; in the test on MCF7 breast, 48.2 µM; in the test with KM12 colon it was more than 100 µM. Also, the TGI in the test on MALME-3M melanoma was more than 100 µM; in the test with TK-10 renal it was more than 100 µM; in the test with RPMI-8226 leukemia, 46.6 µM; in the test with ACHN renal it was more than 100 µM.
Consider `COC1(CC[C@H](C)COC2OC(CO)C(O)C(O)C2O)O[C@H]2C[C@H]3[C@@H]4CC=C5C[C@@H](OC6OC(CO)C(OC7OC(C)C(O)C(O)C7O)C(O)C6OC6OC(C)C(O)C(O)C6O)CC[C@]5(C)[C@H]4CC[C@]3(C)[C@H]2[C@@H]1C` (stereo partly drawn), for which the concentration for total growth inhibition (TGI) in the test with MDA-MB-435 came out at 5.3 µM; in the test with SNB-19 CNS, 12.4 µM; with LOX IMVI melanoma, 3.6 µM; with OVCAR-8 ovarian it was 10.1 µM; in the test with MCF7 breast, 39.8 µM; with KM12 colon, 6.65 µM. Further, the TGI with MALME-3M melanoma was 9.15 µM; in the test with TK-10 renal it was more than 100 µM; in the test on RPMI-8226 leukemia it was 5.93 µM; with ACHN renal it was 29.4 µM.
